Measurements published in ChEMBL document CHEMBL5346973 (J Med Chem, 2023).
Where a SMILES comes first, the peptide text is derived from it.

Key:
[1] = target: Nicotinic acetylcholine receptor alpha9/alpha10 (Rattus norvegicus, UniProt P43144+Q9JLB5); test: Antagonist activity at rat alpha9alpha10 nACh receptor expressed in Xenopus oocyte assessed as inhibition of acetylcholine-induced response at -70 mV holding potential by voltage-clamp based electrophysiological assay; type: cell-based
[2] = target: Neuronal acetylcholine receptor subunit alpha-7 (Rattus norvegicus, UniProt Q05941); test: Antagonist activity at rat alpha7 nACh receptor expressed in Xenopus oocyte assessed as inhibition of acetylcholine-induced response at -70 mV holding potential by voltage-clamp based electrophysiological assay; type: cell-based
Sequence of Neuronal acetylcholine receptor subunit alpha-7 (Q05941 whole entry): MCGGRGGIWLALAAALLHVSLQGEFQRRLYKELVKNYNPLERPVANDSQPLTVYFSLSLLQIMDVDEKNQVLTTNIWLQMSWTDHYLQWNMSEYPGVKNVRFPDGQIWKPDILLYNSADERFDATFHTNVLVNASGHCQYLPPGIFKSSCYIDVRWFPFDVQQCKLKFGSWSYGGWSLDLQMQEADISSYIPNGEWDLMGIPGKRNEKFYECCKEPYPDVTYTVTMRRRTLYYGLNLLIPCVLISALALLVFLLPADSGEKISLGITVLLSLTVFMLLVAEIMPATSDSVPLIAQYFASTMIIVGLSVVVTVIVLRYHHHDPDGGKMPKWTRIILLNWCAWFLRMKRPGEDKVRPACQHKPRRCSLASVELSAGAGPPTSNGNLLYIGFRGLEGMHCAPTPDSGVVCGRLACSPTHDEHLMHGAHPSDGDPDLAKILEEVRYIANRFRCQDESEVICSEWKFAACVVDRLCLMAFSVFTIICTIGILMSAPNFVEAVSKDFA

Sequence of Nicotinic acetylcholine receptor alpha9/alpha10 (P43144 whole entry): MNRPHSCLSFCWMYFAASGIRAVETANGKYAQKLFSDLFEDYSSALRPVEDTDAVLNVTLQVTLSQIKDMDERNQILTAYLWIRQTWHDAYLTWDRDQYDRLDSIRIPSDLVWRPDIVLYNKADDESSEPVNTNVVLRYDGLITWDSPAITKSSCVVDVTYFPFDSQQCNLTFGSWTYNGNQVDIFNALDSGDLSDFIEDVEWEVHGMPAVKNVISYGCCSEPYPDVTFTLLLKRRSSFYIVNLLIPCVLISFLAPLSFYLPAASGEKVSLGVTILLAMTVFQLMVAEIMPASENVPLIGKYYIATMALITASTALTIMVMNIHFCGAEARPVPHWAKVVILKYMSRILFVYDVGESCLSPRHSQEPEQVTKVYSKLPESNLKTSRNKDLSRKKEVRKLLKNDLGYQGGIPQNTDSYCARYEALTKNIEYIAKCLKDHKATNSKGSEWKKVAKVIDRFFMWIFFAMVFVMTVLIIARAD
Sequence of Nicotinic acetylcholine receptor alpha9/alpha10 (Q9JLB5 whole entry): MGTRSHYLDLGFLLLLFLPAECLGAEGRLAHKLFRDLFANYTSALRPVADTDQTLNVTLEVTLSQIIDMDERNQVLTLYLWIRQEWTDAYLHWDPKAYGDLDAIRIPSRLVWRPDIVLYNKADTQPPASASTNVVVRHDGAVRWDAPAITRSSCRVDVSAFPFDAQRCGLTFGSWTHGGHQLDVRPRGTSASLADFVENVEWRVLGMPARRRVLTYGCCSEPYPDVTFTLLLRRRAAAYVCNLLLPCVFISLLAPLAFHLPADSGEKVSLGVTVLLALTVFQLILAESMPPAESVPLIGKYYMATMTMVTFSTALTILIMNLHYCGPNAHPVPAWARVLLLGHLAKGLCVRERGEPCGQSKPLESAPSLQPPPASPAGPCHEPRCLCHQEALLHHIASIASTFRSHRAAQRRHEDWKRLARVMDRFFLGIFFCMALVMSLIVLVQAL

SMILES	IC50 [1] [µM]	IC50 [2] [µM]
CC[C@H](C)[C@@H]1NC(=O)[C@H](CCCNC(=N)N)NC(=O)[C@H](CCCNC(=N)N)NC(=O)[C@@H](NC(=O)[C@H](Cc2ccc(O)cc2)NC(=O)[C@H](CCCNC(=N)N)NC(=O)[C@H](CCCNC(=N)N)NC(=O)[C@H](CCCNC(=N)N)NC(=O)[C@H](CCCNC(=N)N)NC(=O)[C@H](CC(=O)O)NC(=O)[C@H](Cc2ccc(O)cc2)NC(=O)[C@@H]2CCCN2C(=O)[C@H](CO)NC(=O)[C@H](CCCNC(=N)N)NC(=O)[C@@H]2CSSC[C@H](NC(=O)[C@@H](N)[C@@H](C)O)C(=O)N[C@@H](CCCNC(=N)N)C(=O)N[C@@H](CO)C(=O)N[C@@H](CO)C(=O)NCC(=O)N[C@@H](CCCNC(=N)N)C(=O)N[C@@H](Cc3ccc(O)cc3)C(=O)N2)CSSC[C@@H](C(=O)N[C@H](C(=O)O)C(C)C)NC(=O)[C@H](C)NC(=O)[C@@H](C)NC(=O)[C@H]([C@@H](C)O)NC1=O	0.013	6.69
CC[C@H](C)[C@@H]1NC(=O)[C@H](CCCNC(=N)N)NC(=O)[C@H](CCCNC(=N)N)NC(=O)[C@@H](NC(=O)[C@H](Cc2ccc(O)cc2)NC(=O)[C@H](CCCNC(=N)N)NC(=O)[C@H](CCCNC(=N)N)NC(=O)[C@H](CCCNC(=N)N)NC(=O)[C@H](CCCNC(=N)N)NC(=O)[C@H](CC(=O)O)NC(=O)[C@H](Cc2ccc(O)cc2)NC(=O)[C@@H]2CCCN2C(=O)[C@H](CO)NC(=O)[C@H](CCCNC(=N)N)NC(=O)[C@@H]2CSSC[C@H](NC(=O)[C@H](C)N)C(=O)N[C@@H](CCCNC(=N)N)C(=O)N[C@@H](CO)C(=O)N[C@@H](CO)C(=O)NCC(=O)N[C@@H](CCCNC(=N)N)C(=O)N[C@@H](Cc3ccc(O)cc3)C(=O)N2)CSSC[C@@H](C(=O)N[C@H](C(=O)O)C(C)C)NC(=O)[C@H](C)NC(=O)[C@H](CC(=O)O)NC(=O)[C@H]([C@@H](C)O)NC1=O	0.0081	1.08
CC[C@H](C)[C@@H]1NC(=O)[C@H](CCCNC(=N)N)NC(=O)[C@H](CCCNC(=N)N)NC(=O)[C@@H]2CSSC[C@H](NC(=O)[C@H](Cc3ccc(O)cc3)NC(=O)[C@H](CCCNC(=N)N)NC(=O)CNC(=O)[C@H](CO)NC(=O)[C@H](CO)NC(=O)[C@H](CCCNC(=N)N)NC(=O)[C@@H](NC(=O)[C@H](C)N)CSSC[C@@H](C(=O)N[C@H](C(=O)O)C(C)C)NC(=O)[C@H](C)NC(=O)[C@H](C)NC(=O)[C@H]([C@@H](C)O)NC1=O)C(=O)N[C@@H](CCCNC(=N)N)C(=O)N[C@@H](CO)C(=O)N1CCC[C@H]1C(=O)N[C@@H](Cc1ccc(O)cc1)C(=O)N[C@@H](CC(=O)O)C(=O)N[C@@H](CCCNC(=N)N)C(=O)N[C@@H](CCCNC(=N)N)C(=O)N[C@@H](CCCNC(=N)N)C(=O)N[C@@H](CCCNC(=N)N)C(=O)N[C@@H](Cc1ccc(O)cc1)C(=O)N2	0.027	5.89
CC[C@H](C)[C@@H]1NC(=O)[C@H](CCCNC(=N)N)NC(=O)[C@H](CCCNC(=N)N)NC(=O)[C@@H](NC(=O)[C@H](Cc2ccc(O)cc2)NC(=O)[C@H](CCCNC(=N)N)NC(=O)[C@H](CCCNC(=N)N)NC(=O)[C@H](CCCNC(=N)N)NC(=O)[C@H](CCCNC(=N)N)NC(=O)[C@H](CC(=O)O)NC(=O)[C@H](Cc2ccc(O)cc2)NC(=O)[C@@H]2CCCN2C(=O)[C@H](CO)NC(=O)[C@H](CCCNC(=N)N)NC(=O)[C@@H]2CSSC[C@H](NC(=O)[C@@H](N)[C@@H](C)O)C(=O)N[C@@H](CCCNC(=N)N)C(=O)N[C@@H](CO)C(=O)N[C@@H](CO)C(=O)NCC(=O)N[C@@H](CCCNC(=N)N)C(=O)N[C@@H](C)C(=O)N2)CSSC[C@@H](C(=O)N[C@H](C(=O)O)C(C)C)NC(=O)[C@H](C)NC(=O)[C@H](CC(=O)O)NC(=O)[C@H]([C@@H](C)O)NC1=O (HELM PEPTIDE1{T.C.R.S.S.G.R.A.C.R.S.P.Y.D.R.R.R.R.Y.C.R.R.I.T.D.A.C.V}$PEPTIDE1,PEPTIDE1,2:R3-9:R3|PEPTIDE1,PEPTIDE1,20:R3-27:R3$$$V2.0)	0.01	1.7
CC[C@H](C)[C@@H]1NC(=O)[C@H](CCCNC(=N)N)NC(=O)[C@H](CCCNC(=N)N)NC(=O)[C@@H]2CSSC[C@H](NC(=O)[C@H](Cc3ccc(O)cc3)NC(=O)[C@H](CCCNC(=N)N)NC(=O)CNC(=O)[C@H](CO)NC(=O)[C@H](CO)NC(=O)[C@H](CCCNC(=N)N)NC(=O)[C@@H](NC(=O)[C@@H](N)[C@@H](C)O)CSSC[C@@H](C(=O)N[C@H](C(=O)O)C(C)C)NC(=O)[C@H](C)NC(=O)[C@H](CC(=O)O)NC(=O)[C@H]([C@@H](C)O)NC1=O)C(=O)N[C@@H](CCCNC(=N)N)C(=O)N[C@@H](CO)C(=O)N1CCC[C@H]1C(=O)N[C@@H](Cc1ccc(O)cc1)C(=O)N[C@@H](CC(=O)O)C(=O)N[C@@H](CCCNC(=N)N)C(=O)N[C@@H](CCCNC(=N)N)C(=O)N[C@@H](CCCNC(=N)N)C(=O)N[C@@H](C)C(=O)N[C@@H](Cc1ccc(O)cc1)C(=O)N2	0.027	> 10
CC[C@H](C)[C@@H]1NC(=O)[C@H](CCCNC(=N)N)NC(=O)[C@H](C)NC(=O)[C@@H](NC(=O)[C@H](Cc2ccc(O)cc2)NC(=O)[C@H](CCCNC(=N)N)NC(=O)[C@H](CCCNC(=N)N)NC(=O)[C@H](CCCNC(=N)N)NC(=O)[C@H](CCCNC(=N)N)NC(=O)[C@H](CC(=O)O)NC(=O)[C@H](Cc2ccc(O)cc2)NC(=O)[C@@H]2CCCN2C(=O)[C@H](CO)NC(=O)[C@H](CCCNC(=N)N)NC(=O)[C@@H]2CSSC[C@H](NC(=O)[C@@H](N)[C@@H](C)O)C(=O)N[C@@H](CCCNC(=N)N)C(=O)N[C@@H](CO)C(=O)N[C@@H](CO)C(=O)NCC(=O)N[C@@H](CCCNC(=N)N)C(=O)N[C@@H](Cc3ccc(O)cc3)C(=O)N2)CSSC[C@@H](C(=O)N[C@H](C(=O)O)C(C)C)NC(=O)[C@H](C)NC(=O)[C@H](CC(=O)O)NC(=O)[C@H]([C@@H](C)O)NC1=O	0.014	5.61
CC[C@H](C)[C@@H]1NC(=O)[C@H](CCCNC(=N)N)NC(=O)[C@H](CCCNC(=N)N)NC(=O)[C@@H](NC(=O)[C@H](Cc2ccc(O)cc2)NC(=O)[C@H](CCCNC(=N)N)NC(=O)[C@H](CCCNC(=N)N)NC(=O)[C@H](CCCNC(=N)N)NC(=O)[C@H](CCCNC(=N)N)NC(=O)[C@H](C)NC(=O)[C@H](Cc2ccc(O)cc2)NC(=O)[C@@H]2CCCN2C(=O)[C@H](CO)NC(=O)[C@H](CCCNC(=N)N)NC(=O)[C@@H]2CSSC[C@H](NC(=O)[C@@H](N)[C@@H](C)O)C(=O)N[C@@H](CCCNC(=N)N)C(=O)N[C@@H](CO)C(=O)N[C@@H](CO)C(=O)NCC(=O)N[C@@H](CCCNC(=N)N)C(=O)N[C@@H](Cc3ccc(O)cc3)C(=O)N2)CSSC[C@@H](C(=O)N[C@H](C(=O)O)C(C)C)NC(=O)[C@H](C)NC(=O)[C@H](CC(=O)O)NC(=O)[C@H]([C@@H](C)O)NC1=O (HELM PEPTIDE1{T.C.R.S.S.G.R.Y.C.R.S.P.Y.A.R.R.R.R.Y.C.R.R.I.T.D.A.C.V}$PEPTIDE1,PEPTIDE1,2:R3-9:R3|PEPTIDE1,PEPTIDE1,20:R3-27:R3$$$V2.0)	0.015	3.08
CC[C@H](C)[C@@H]1NC(=O)[C@H](CCCNC(=N)N)NC(=O)[C@H](CCCNC(=N)N)NC(=O)[C@@H]2CSSC[C@H](NC(=O)[C@H](Cc3ccc(O)cc3)NC(=O)[C@H](CCCNC(=N)N)NC(=O)CNC(=O)[C@H](CO)NC(=O)[C@H](CO)NC(=O)[C@H](CCCNC(=N)N)NC(=O)[C@@H](NC(=O)[C@@H](N)[C@@H](C)O)CSSC[C@@H](C(=O)N[C@H](C(=O)O)C(C)C)NC(=O)[C@H](C)NC(=O)[C@H](CC(=O)O)NC(=O)[C@H]([C@@H](C)O)NC1=O)C(=O)N[C@@H](CCCNC(=N)N)C(=O)N[C@@H](CO)C(=O)N1CCC[C@H]1C(=O)N[C@@H](C)C(=O)N[C@@H](CC(=O)O)C(=O)N[C@@H](CCCNC(=N)N)C(=O)N[C@@H](CCCNC(=N)N)C(=O)N[C@@H](CCCNC(=N)N)C(=O)N[C@@H](CCCNC(=N)N)C(=O)N[C@@H](Cc1ccc(O)cc1)C(=O)N2 (HELM PEPTIDE1{T.C.R.S.S.G.R.Y.C.R.S.P.A.D.R.R.R.R.Y.C.R.R.I.T.D.A.C.V}$PEPTIDE1,PEPTIDE1,2:R3-27:R3|PEPTIDE1,PEPTIDE1,9:R3-20:R3$$$V2.0)	0.02	4.68
CC[C@H](C)[C@@H]1NC(=O)[C@H](CCCNC(=N)N)NC(=O)[C@H](CCCNC(=N)N)NC(=O)[C@@H]2CSSC[C@H](NC(=O)[C@H](Cc3ccc(O)cc3)NC(=O)[C@H](CCCNC(=N)N)NC(=O)CNC(=O)[C@H](CO)NC(=O)[C@H](CO)NC(=O)[C@H](CCCNC(=N)N)NC(=O)[C@@H](NC(=O)[C@@H](N)[C@@H](C)O)CSSC[C@@H](C(=O)N[C@H](C(=O)O)C(C)C)NC(=O)[C@H](C)NC(=O)[C@H](CC(=O)O)NC(=O)[C@H]([C@@H](C)O)NC1=O)C(=O)N[C@@H](CCCNC(=N)N)C(=O)N[C@@H](CO)C(=O)N[C@@H](C)C(=O)N[C@@H](Cc1ccc(O)cc1)C(=O)N[C@@H](CC(=O)O)C(=O)N[C@@H](CCCNC(=N)N)C(=O)N[C@@H](CCCNC(=N)N)C(=O)N[C@@H](CCCNC(=N)N)C(=O)N[C@@H](CCCNC(=N)N)C(=O)N[C@@H](Cc1ccc(O)cc1)C(=O)N2 (HELM PEPTIDE1{T.C.R.S.S.G.R.Y.C.R.S.A.Y.D.R.R.R.R.Y.C.R.R.I.T.D.A.C.V}$PEPTIDE1,PEPTIDE1,2:R3-27:R3|PEPTIDE1,PEPTIDE1,9:R3-20:R3$$$V2.0)	0.01	1.78
CC[C@H](C)[C@@H]1NC(=O)[C@H](CCCNC(=N)N)NC(=O)[C@H](C)NC(=O)[C@@H]2CSSC[C@H](NC(=O)[C@H](Cc3ccc(O)cc3)NC(=O)[C@H](CCCNC(=N)N)NC(=O)CNC(=O)[C@H](CO)NC(=O)[C@H](CO)NC(=O)[C@H](CCCNC(=N)N)NC(=O)[C@@H](NC(=O)[C@@H](N)[C@@H](C)O)CSSC[C@@H](C(=O)N[C@H](C(=O)O)C(C)C)NC(=O)[C@H](C)NC(=O)[C@H](CC(=O)O)NC(=O)[C@H]([C@@H](C)O)NC1=O)C(=O)N[C@@H](CCCNC(=N)N)C(=O)N[C@@H](CO)C(=O)N1CCC[C@H]1C(=O)N[C@@H](Cc1ccc(O)cc1)C(=O)N[C@@H](CC(=O)O)C(=O)N[C@@H](CCCNC(=N)N)C(=O)N[C@@H](CCCNC(=N)N)C(=O)N[C@@H](CCCNC(=N)N)C(=O)N[C@@H](CCCNC(=N)N)C(=O)N[C@@H](Cc1ccc(O)cc1)C(=O)N2	0.037	> 10
